Where “and” joins values, the source holds several entries; their conditions need not be identical. Equal entries are not always repeated.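 Method: 48-hour compound exposure of cells in 96-well plates, five concentrations, linear interpolation of endpoints. The concentration for 50% growth inhibition is given as GI50. Definition used: TGI = concentration required for complete inhibition of growth.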
Key:
Assay in all cases: NCI tumour cell line growth inhibition, 48 h
CCRF-CEM leukemia = tested on: CCRF-CEM leukemia
COLO 205 colon = tested on: COLO 205 colon
HS 578T breast = tested on: HS 578T breast
MALME-3M melanoma = tested on: MALME-3M melanoma
MDA-MB-435 = tested on: MDA-MB-435
MOLT-4 leukemia = tested on: MOLT-4 leukemia
SK-MEL-5 melanoma = tested on: SK-MEL-5 melanoma
UACC-257 melanoma = tested on: UACC-257 melanoma
UACC-62 melanoma = tested on: UACC-62 melanoma
A498 renal = tested on: A498 renal

Compound	TGI (CCRF-CEM leukemia)	TGI (COLO 205 colon)	TGI (HS 578T breast)	TGI (MALME-3M melanoma)	TGI (MDA-MB-435)	TGI (MOLT-4 leukemia)	TGI (SK-MEL-5 melanoma)	TGI (UACC-257 melanoma)	TGI (UACC-62 melanoma)	TGI (A498 renal)	GI50 (MALME-3M melanoma)	GI50 (MOLT-4 leukemia)
CN=C(Nc1ccc(OC)c2ccccc12)SC	> 10 µM	> 10 µM	> 10 µM	> 10 µM	> 10 µM	> 10 µM	> 10 µM	> 10 µM	> 10 µM	–	–	–
N#CCCN(CCC#N)c1ccc(/C=C2\N=C(c3ccccc3)N(c3ccc(C(=O)O)cc3)C2=O)cc1	–	> 100 µM	58.5 µM	–	> 100 µM	–	> 100 µM	> 100 µM	67.5 µM	> 100 µM	–	–
CC1(C)OCC(C2OC3OC(C)(C)OC3C2c2ccccc2)O1 (configuration not stated)	> 100 µM	54 µM	64.4 µM	> 100 µM	93.5 µM	> 100 µM	33.2 µM	> 100 µM	87.1 µM	–	–	–
Oc1[nH]c2ccccc2c1C1=Nc2ccccc2/C1=N\OCCOC1OCC(O)C(O)C1O (configuration not stated)	> 100 µM	> 100 µM	> 100 µM	> 100 µM	> 100 µM	> 100 µM	> 100 µM	> 100 µM	> 100 µM	–	–	–
Nc1nc2ccc(Sc3ccc4nc(N)[nH]c(=O)c4c3)cc2c(=O)[nH]1	> 100 µM	> 100 µM	> 100 µM	> 100 µM	> 100 µM	> 100 µM	> 100 µM	> 100 µM	> 100 µM	–	–	–
COC(=O)C1Cc2c(OC)ccc(OC)c2C(O)C1C(=O)OC (configuration not stated)	> 100 µM	> 100 µM	> 100 µM	> 100 µM	> 100 µM	> 100 µM	> 100 µM	> 100 µM	> 100 µM	–	–	–
Nc1[nH]c(=O)nc2snnc12	> 100 µM	> 100 µM	> 100 µM	> 100 µM	> 100 µM	> 100 µM	> 100 µM	> 100 µM	> 78.3 µM	–	–	–
O=c1cc(-c2ccccc2)[nH]c2cc(F)cc(F)c12	> 100 µM	38.9 µM	–	79.4 µM	–	> 100 µM	> 100 µM	> 100 µM	63.9 µM	–	–	–
COc1cc(C(=O)N[C@H]2CCc3cc(OC)c(OC)c(OC)c3-c3ccc(SC)c(=O)cc32)cc(OC)c1OC	25 µM and > 100 µM	–	–	17.5 µM and 14.9 µM	–	25 µM and > 100 µM	0.324 µM and 0.0331 µM	19.1 µM and > 100 µM	25 µM and > 100 µM	–	0.0224 µM	0.0133 µM
CC(=O)C(C)C(=O)N1C(=O)N(C)C2(C)N(C)C(=O)NC12C (configuration not stated)	–	> 100 µM	> 100 µM	> 100 µM	> 100 µM	–	> 100 µM	–	> 100 µM	–	–	–
O=Cc1ccc(OC[C@H]2COC(=O)N2)cc1	> 100 µM	> 100 µM	> 100 µM	> 100 µM	> 100 µM	> 100 µM	> 100 µM	> 100 µM	> 100 µM	–	–	–
CC1CN=C(Nc2cccc(F)c2)S1 (configuration not stated)	> 100 µM	> 100 µM	> 100 µM	> 100 µM	> 100 µM	–	> 100 µM	> 100 µM	> 100 µM	–	–	–
COc1ccc2oc(S(=O)(=O)N3CC(CCl)c4ccc(N)cc43)cc2c1 (configuration not stated)	12.7 µM	14.9 µM	> 100 µM	> 100 µM	–	> 54.5 µM	4.95 µM	> 100 µM	> 100 µM	> 52.1 µM	–	–
CC1(C)OC(=S)N(c2ccccc2)C12C=Cc1cc3ccccc3nc1S2 (configuration not stated)	> 100 µM	> 100 µM	–	> 100 µM	–	> 100 µM	> 100 µM	> 100 µM	> 100 µM	–	–	–
CC1(C)CC(=O)c2c(nc3c(ccc4ccccc43)c2-c2ccc(NC(=O)CCC(=O)Nc3ccc(-c4c5c(nc6c4ccc4ccccc46)CC(C)(C)CC5=O)cc3)cc2)C1	> 100 µM	> 100 µM	> 100 µM	–	> 100 µM	> 100 µM	> 100 µM	> 100 µM	> 100 µM	–	–	–
COc1ccc(-c2c(-c3ccc(OC)cc3)n3c(=O)n(C)c(=O)n23)cc1	> 100 µM	> 100 µM	–	> 100 µM	> 100 µM	> 100 µM	> 100 µM	> 100 µM	> 100 µM	95.3 µM	–	–
FC(F)(F)c1ccc2c(c1)nc1n2C(c2c(Cl)cccc2Cl)SC1 (configuration not stated)	–	–	59.3 µM	42.1 µM	41.4 µM	> 100 µM	–	42.9 µM	34.1 µM	32.7 µM	–	–
COc1ccc(/C=C2\C[C@H]3[C@@H]4CCC5=C/C(=N/O)CC[C@]5(C)[C@H]4CC[C@]3(C)\C2=N\O)cc1	–	43.9 µM	> 100 µM	> 100 µM	> 100 µM	> 100 µM	25.9 µM	> 100 µM	> 100 µM	–	–	–
N=c1oc2ccccc2cc1-c1nc2ccccc2[nH]1	> 100 µM	> 100 µM	> 100 µM	72 µM	48.2 µM	> 100 µM	> 100 µM	> 100 µM	> 100 µM	–	–	–
O=c1[nH]ncc2[nH]c3c4ccccc4ccc3c12	> 100 µM	96.1 µM	–	> 100 µM	62.4 µM	> 100 µM	> 100 µM	–	–	–	–	–

Source: PubChem BioAssay (NCI)
